Results published in patent publication US10537558B2 (Bantam Pharmaceutical, LLC, priority 2015, dated 2020).

test system: BJAB cells; experiment: BJAB cell proliferation (Cell Titer Glo); type: cell-based; conditions: Homo sapiens, read-out: EC50
Summary of the method: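 BJAB cells exposed to serially diluted compounds (0.1% DMSO final) for about 72 h at 37 °C. Proliferation read by Cell Titer Glo luminescence as percent of untreated controls; EC50 from non-linear regression of dose-response data.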

SMILES	EC50 [µM]
Cc1nn(-c2nc(C3=CCCCC3)c(SC(C)C)s2)c(C(=O)O)c1-c1cccc(F)c1 [Compound 183, 1-(4-(cyclohex-1-en-1-yl)-5-(isopropylthio)thiazol-2-yl)-4-(3-fluorophenyl)-3-methyl-1H-pyrazole-5-carboxylic Acid]	5 to 10
Cc1nn(-c2nc(-c3ccc(Cl)c(C#N)c3)c(SC(C)C)s2)c(C(=O)O)c1-c1cccc(F)c1 [Compound 218, 1-(4-(4-chloro-3-cyanophenyl)-5-(isopropylthio)thiazol-2-yl)-4-(3-fluorophenyl)-3-methyl-1H-pyrazole-5-carboxylic Acid]	5 to 10
COc1cc(Cl)cc(-c2c(C)nn(-c3nc(-c4ccccc4)c(SC(C)C)s3)c2C(=O)O)c1 [Compound 185, 4-(3-chloro-5-methoxyphenyl)-1-(5-(isopropylthio)-4-phenylthiazol-2-yl)-3-methyl-1H-pyrazole-5-carboxylic Acid]	10 to 25
Cc1nn(-c2nc(-c3ccc(Cl)c(Cl)c3)c(SCCC(C)C)s2)c(C(=O)O)c1Cc1ccccc1[N+](=O)[O-] [Compound 104, 1-(4-(3,4-dichlorophenyl)-5-(isopentylthio)thiazol-2-yl)-3-methyl-4-(2-nitrobenzyl)-1H-pyrazole-5-carboxylic acid]	25 to 50
COc1cc(Cl)ccc1-c1nc(-n2nc(C)c(-c3cc(C)nc(C)c3)c2C(=O)O)sc1SC(C)C [Compound 206, 1-(4-(4-chloro-2-methoxyphenyl)-5-(isopropylthio)thiazol-2-yl)-4-(2,6-dimethylpyridin-4-yl)-3-methyl-1H-pyrazole-5-carboxylic Acid]	1 to 5
Cc1nn(-c2nc(-c3ccc(Cl)c(Cl)c3)c(S(=O)(=O)C(C)C)s2)c(C(=O)O)c1-c1cnn(C)c1 [Compound 67, 2-(4-(3,4-dichlorophenyl)-5-(isopropylsulfonyl)thiazol-2-yl)-2′,5-dimethyl-4,4′-bi(2H-pyrazole)-3-carboxylic acid]	25 to 50
Cc1nn(-c2nc(-c3ccc(Cl)c(Cl)c3)c(SC(C)C)s2)c(C(=O)O)c1-c1cccc2cc[nH]c12 [Compound 127, 1-(4-(3,4-dichlorophenyl)-5-(isopropylthio)thiazol-2-yl)-4-(1H-indol-7-yl)-3-methyl-1H-pyrazole-5-carboxylic acid]	5 to 10
CCCSc1sc(-n2nc(C)c(Cc3ccccc3NS(C)(=O)=O)c2C(=O)N2CCC(CN)CC2)nc1-c1ccc(Cl)c(Cl)c1 [Compound 14, N-(2-((5-(4-(aminomethyl)piperidine-1-carbonyl)-1-(4-(3,4-dichlorophenyl)-5-(propylthio)thiazol-2-yl)-3-methyl-1H-pyrazol-4-yl)methyl)phenyl)methanesulfonamide]	10 to 25
Cc1nn(-c2nc(-c3ncc(C(F)(F)F)cn3)c(SC(C)C)s2)c(C(=O)O)c1-c1cccc(F)c1 [Compound 246, 4-(3-fluorophenyl)-1-(5-(isopropylthio)-4-(5-(trifluoromethyl)pyrimidin-2-yl)thiazol-2-yl)-3-methyl-1H-pyrazole-5-carboxylic Acid]	10 to 25
Cc1nn(-c2nc(C3CC3)c(SC(C)C)s2)c(C(=O)O)c1C1CC1 [Compound 172, 4-cyclopropyl-1-(4-cyclopropyl-5-(isopropylthio)thiazol-2-yl)-3-methyl-1H-pyrazole-5-carboxylic Acid]	> 25
Cc1cccc(-c2nc(-n3nc(C)c(-c4cc(C)nc(C)c4)c3C(=O)O)sc2SC(C)C)c1 [Compound 41, 4-(2,6-dimethylpyridin-4-yl)-1-(5-(isopropylthio)-4-m-tolylthiazol-2-yl)-3-methyl-1H-pyrazole-5-carboxylic Acid]	5 to 10
Cc1cc(N)cc(-c2c(C)nn(-c3nc(-c4ccc(Cl)c(Cl)c4)c(SC(C)C)s3)c2C(=O)O)c1 [Compound 153, 4-(3-amino-5-methylphenyl)-1-(4-(3,4-dichlorophenyl)-5-(isopropylthio)thiazol-2-yl)-3-methyl-1H-pyrazole-5-carboxylic acid]	> 25
